Experimental data as given in patent US4552882A, “7-(1-Pyrrolyl) derivatives of 1-ethyl-1,4-dihydro-4-oxoquinoline-3-carboxylic acids and 1-ethyl-1,4-dihydro-4-oxo-1,8-naphthyridine-3-carboxylic acids and their use as antimicrobial agents” (Provesan, SA, priority 1983, dated 1985).
In brackets after ≈: the same amount, converted by molar mass.

Tests used:
[1] = test system: Micrococus flavus ATCC 10240; test: MIC in vitro; format: cell-based; conditions: Micrococcus flavus, ATCC10240, Dextrose agar, 37° C., 20 hours
Experimental: (§1) (G. L. Daquet and Y. A. Chabbect, Techniques en bacteriologie (Bacteriological techniques), vol. 3, Flammarion Medecine Sciences, Paris, 1972 and W. B. Hugo and A. D. Rusell, Pharmaceutical Microbiology, Blackwell Scientific Publications, London, (1977)). Antibiotic medium no. 1 (seed agar) (Oxoid CM 327) Tryptone-soya broth (Oxoid CM 129) Ringer's physiological solution 1/4 (oxoid BR 52) Dextrose agar (BBL-11165) 0.1 N NaOH "Micrococcus flavus" ATCC 10240 Each of the microorganisms is seeded by streaking in tubes of Antibiotic medium No. 1 (seed agar), which are then incubated at 37° C. for 20 hours. Using a culture loop, the cultures are then seeded in tryptone-soyabroth and incubated at 37° C. for 20 hours. The culture obtained is diluted to 1/4 with Ringer's physiological solution, so as to obtain a standardized suspension of 10^7 -10^9 cfu/ml for each organism. Starting from a solution of 1,000 μg/ml in 0.1 N NaOH, each product is diluted in Dextrose agar (previously melted and maintained at 50° C.), with successive dilutions so as to obtain the following concentrations: 64--32--16--8--4--2--1--0.5--0.25--0.125 μg of derivative/ml medium. For each product, the solution of each concentration is subsequently distributed into Petri dishes 10 cm in diameter, with 10 ml of medium per dish and the same number of dishes as microorganisms to be tested. As soon as the medium has cooled, the dishes are seeded with the inoculations using 0.4 ml of inoculation per dish. They are spread with a Driglasky loop and the supernatant is removed. The seeded dishes are incubated at 37° C. for 20 hours.

[2] = test system: Shigella flexnerii; test: MIC in vitro; format: cell-based; conditions: Dextrose agar, 37° C., 20 hours
Experimental: (§2) (G. L. Daquet and Y. A. Chabbect, Techniques en bacteriologie (Bacteriological techniques), vol. 3, Flammarion Medecine Sciences, Paris, 1972 and W. B. Hugo and A. D. Rusell, Pharmaceutical Microbiology, Blackwell Scientific Publications, London, (1977)).
(§3) Antibiotic medium no. 1 (seed agar) (Oxoid CM 327)
(§4) Tryptone-soya broth (Oxoid CM 129)
(§5) Ringer's physiological solution 1/4 (oxoid BR 52) Dextrose agar (BBL-11165) 0.1 N NaOH
(§6) Each of the microorganisms is seeded by streaking in tubes of Antibiotic medium No. 1 (seed agar), which are then incubated at 37° C. for 20 hours. Using a culture loop, the cultures are then seeded in tryptone-soyabroth and incubated at 37° C. for 20 hours. The culture obtained is diluted to 1/4 with Ringer's physiological solution, so as to obtain a standardized suspension of 10^7 -10^9 cfu/ml for each organism.
(§7) Starting from a solution of 1,000 μg/ml in 0.1 N NaOH, each product is diluted in Dextrose agar (previously melted and maintained at 50° C.), with successive dilutions so as to obtain the following concentrations: 64--32--16--8--4--2--1--0.5--0.25--0.125 μg of derivative/ml medium.
(§8) For each product, the solution of each concentration is subsequently distributed into Petri dishes 10 cm in diameter, with 10 ml of medium per dish and the same number of dishes as microorganisms to be tested.
(§9) As soon as the medium has cooled, the dishes are seeded with the inoculations using 0.4 ml of inoculation per dish. They are spread with a Driglasky loop and the supernatant is removed. The seeded dishes are incubated at 37° C. for 20 hours.

[3] = in vivo; conditions: mouse, ip
Experimental: To determine this toxicity, C.F.L.P. strain albino mice of both sexes, weighing between 19 and 25 grams, have been used as experimental animals. After an 18 hour fast period with water "ad libitum" the derivatives which are the subjects of the present invention are administered intraperitoneally in 5% suspension in gum arabic. The volume of suspension administered has in all cases been 0.4 ml/20 grams (20 ml/kg), changing the concentration of the suspension according to the dose administered.
One hour after the administration of the derivatives, the animals are supplied with Panlab standard rat-mouse feed. The period of observation of mortality has been 7 days.

[4] = test system: Salmonella typhimurius AMES 98; test: MIC in vitro; format: cell-based, Salmonella typhimurium; conditions: AMES98, Dextrose agar, 37° C., 20 hours
Experimental: as §2, §3, §4, §5
"Salmonella typhimurium" AMES 98
as §6, §7, §8, §9

[5] = test system: Escherichia coli ATCC 10536; test: MIC in vitro; format: cell-based; conditions: ATCC10536, Dextrose agar, 37° C., 20 hours
Experimental: as §1, with “"Escherichia coli"” for “"Micrococcus flavus"”, “10536” for “10240”

| SMILES | MIC [1] [µg/mL] | MIC [2] [µg/mL] | LD50 at 168 h [3] [mg/kg] | MIC [4] [µg/mL] | MIC [5] [µg/mL] |
| --- | --- | --- | --- | --- | --- |
| CCn1cc(C(=O)O)c(=O)c2ccc(-n3cccc3)cc21 [Example 1, 7-(1-pyrrolyl)-1-ethyl-1,4-dihydro-4-oxo-3-quinolinecarboxylic acid] | 16 (≈ 56.7 µM) | 8 (≈ 28.3 µM) | > 800 | 0.5 (≈ 1.77 µM) | 4 (≈ 14.2 µM) |
| CCn1cc(C(=O)O)c(=O)c2cc(F)c(-n3cccc3)nc21 [Example 4, 1-ethyl-1,4-dihydro-4-oxo-6-fluoro-7-(1-pyrrolyl)-1,8-naphthyridine-3-carboxylic acid] | 1 (≈ 3.32 µM) | 2 (≈ 6.64 µM) | > 1000 | 0.12 (≈ 0.398 µM) | 0.12 (≈ 0.398 µM) |
| CCn1cc(C(=O)O)c(=O)c2cc(F)c(-n3cccc3)cc21 [Example 2, 6-fluoro-7-(1-pyrrolyl)-1-ethyl-1,4-dihydro-4-oxo-3-quinolinecarboxylic acid] | 8 (≈ 26.6 µM) | 2 (≈ 6.66 µM) | > 1600 | < 0.125 | 1 (≈ 3.33 µM) |
| CCn1cc(C(=O)O)c(=O)c2ccc(-n3cccc3)nc21 [Example 3, 1-ethyl-1,4-dihydro-4-oxo-7-(1-pyrrolyl)-1,8-naphthyridine-3-carboxylic acid] | 4 (≈ 14.1 µM) | 16 (≈ 56.5 µM) | 900 | 0.5 (≈ 1.76 µM) | 8 (≈ 28.2 µM) |
| CCn1cc(C(=O)O)c(=O)c2cnc(N3CCNCC3)nc21 [Pipemidic acid, reference compound] | > 64 | 4 (≈ 13.2 µM) | – | 4 (≈ 13.2 µM) | 2 (≈ 6.59 µM) |
